Data on 6 molecules can be found in patent US6831199B1, “Pyrimidine compounds and derivatives thereof” (G. D. Searle & Co., priority 1995, dated 2004).

Assay [1] addresses T1, Human fibrinogen receptor (αIIbβ3) (Homo sapiens, UniProt P05106+P08514).
T1 construct: Human fibrinogen receptor (αIIbβ3) was purified from outdated platelets; from tissue; host or cells: outdated human platelets
As to the kind of experiment: Purified IIb/IIIa receptor assay (solid phase receptor assay, competition with biotinylated vitronectin). The class given is binding. To be noted: read-out: IIb/IIIa IC50. Summed up:
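Competition format: 1 nM biotinylated vitronectin plus test compound (highest 1.0×10^−4 M), 2 h at room temperature on wells coated with platelet-derived αIIbβ3. Buffer was TBS containing 1.0 mM Ca, Mg, Mn, pH 7.4. HRP anti-biotin readout at 450 nm; normalized to maximum binding, four-parameter curve fit.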

The test system of assay [2] is platelet rich plasma. Description: Human platelet rich plasma assay (ADP induced platelet aggregation). It is filed as cell-based. To be noted: Homo sapiens, Platelet, ADP induced platelet aggregation in human platelet rich plasma; read-out: Human PRP. Summed up:
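Citrated platelet-rich plasma from aspirin-free healthy human donors was stirred at 37 °C and preincubated with compound for 1 min. Aggregation was then triggered with ADP (added as a 200 uM solution) and recorded photometrically for 3 min. Dose–response curves were built from % inhibition of the maximal saline-control response.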

The target of assay [3] is T2, Human vitronectin receptor (αvβ3) (Homo sapiens, UniProt P05106+P06756).
T2 construct: Human vitronectin receptor (αvβ3) was purified from human placenta; from tissue; host or cells: human placenta
As to the kind of experiment: Vitronectin adhesion assay (solid phase receptor assay, competition with biotinylated vitronectin). The note with it: read-out: AvB3 IC50. The class given is binding. Summed up: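 Purified human αvβ3 coated overnight at 4 °C in TBS with 1.0 mM Ca++, Mg++, Mn++, pH 7.4; compounds (top final 1.0×10^−4 M) competed with 1 nM biotinylated vitronectin for 2 h at room temperature. Bound ligand detected by HRP anti-biotin/OPD at A450; values normalized to no-competitor controls, four-parameter curve fit.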

The structures appear in SMILES notation. Where a name gives a salt, the structure may show the parent alone. A value given as a limit tells only on which side of the number the result lay.

For `C#C[C@H](CC(=O)O)NC(=O)CNC(=O)c1cccc(NC(=N)N)c1` [Example 45, 3S-[[2-[[[3-[(aminoiminomethyl)amino]phenyl]carbonyl]amino]acetyl]amino]-4-pentynoic acid, hydrochloride salt], the values for the IC50 in assay [1], in assay [2] and in assay [3] were 39.5 nM, 167000 nM and 0.69 nM, respectively.

For the molecule `NC(=O)Nc1cccc(C(=O)NCC(=O)NC(CC(=O)O)c2cccnc2)c1` (stereo not drawn) [Example 46, β-[[2-[[[3-(aminocarbonylamino)phenyl]carbonyl]amino]acetyl]amino]pyridine-3-propanoic acid, hydrochloride salt], the IC50 in assay [1] is 1680 nM; in assay [2] it was above 200000 nM; in assay [3] it was 5.34 nM.

Regarding `Cc1ccc(S(=O)(=O)NCC(CC(=O)O)NC(=O)CNC(=O)c2cccc(NC(=N)N)c2)cc1` (stereo not drawn) [Example 65, 3-[[2-[[[3-[(aminoiminomethyl)amino]phenyl]carbonyl]amino]acetyl]amino]-4-[[(4-methylphenyl)sulfonyl]amino]butanoic acid, trifluoroacetate salt], the IC50 in assay [1] is 170 nM; in assay [2], above 200000 nM; in assay [3], 9.7 nM.

On to `N=C(N)Nc1cccc(C(=O)NCC(=O)N[C@@H](CC(=O)O)CS(=O)(=O)c2ccccc2C(=O)O)c1` [Example 71, 2-[[2S-[[2-[[[3-[(aminoiminomethyl)amino]phenyl]carbonyl]amino]acetyl]amino]-2-(carboxymethyl)ethyl]sulfonyl]benzoic acid, TFA salt], for which the IC50 in assay [1] is 202 nM; in assay [2] it was above 200000 nM; in assay [3], 20.4 nM.

Take `N=C(N)Nc1cccc(C(=O)NCC(=O)NC(CC(=O)O)c2cnc3ccccc3c2)c1` (stereo not drawn) [Example 99, β-[[2-[[[3-[(aminoiminomethyl)amino]phenyl]carbonyl]amino]acetyl]amino]quinoline-3-propanoic acid, bis(trifluoroacetate)salt]: the values for the IC50 in assay [1], in assay [2] and in assay [3] were 1.89 nM, 57500 nM and 0.38 nM, respectively.

As for `NC(=S)Nc1cccc(C(=O)NCC(=O)NC(CC(=O)O)c2cccnc2)c1` (stereo not drawn) [Example 114, β-[[2-[[[3-[(aminothioxomethyl)amino]phenyl]carbonyl]amino]acetyl]amino]pyridine-3-propanoic acid, trifluoroacetate salt], the IC50 is 2940 nM in assay [1], above 200000 nM in assay [2] and 3.26 nM in assay [3].
